Source: PubChem BioAssay (NCI)
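Cells were grown in 96-well plates and exposed to each compound for 48 hours at five concentrations; endpoints were interpolated linearly between bracketing concentrations, or set to the highest concentration if not reached. GI50: concentration for 50% inhibition of growth. At the TGI there is no net growth.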

Tests used:
Experiment in all cases: DTP human tumour cell line panel, 48 h
LOX IMVI melanoma = test system: LOX IMVI melanoma
SF-268 CNS = test system: SF-268 CNS
IGROV1 ovarian = test system: IGROV1 ovarian
UACC-257 melanoma = test system: UACC-257 melanoma
A498 renal = test system: A498 renal
NCI-H460 lung = test system: NCI-H460 lung
HT29 colon = test system: HT29 colon
SNB-75 CNS = test system: SNB-75 CNS
SK-MEL-5 melanoma = test system: SK-MEL-5 melanoma
HCT-116 colon = test system: HCT-116 colon
BT-549 breast = test system: BT-549 breast
EKVX NSCLC = test system: EKVX NSCLC
SN12C renal = test system: SN12C renal
SF-295 CNS = test system: SF-295 CNS
NCI-H522 lung = test system: NCI-H522 lung
M14 melanoma = test system: M14 melanoma
HCT-15 colon = test system: HCT-15 colon
SK-MEL-28 melanoma = test system: SK-MEL-28 melanoma
HCC-2998 colon = test system: HCC-2998 colon
TK-10 renal = test system: TK-10 renal
OVCAR-4 ovarian = test system: OVCAR-4 ovarian
CAKI-1 renal = test system: CAKI-1 renal
NCI-H23 lung = test system: NCI-H23 lung
MDA-MB-435 = test system: MDA-MB-435
HOP-92 NSCLC = test system: HOP-92 NSCLC
SW-620 colon = test system: SW-620 colon
UACC-62 melanoma = test system: UACC-62 melanoma
CCRF-CEM leukemia = test system: CCRF-CEM leukemia
OVCAR-3 ovarian = test system: OVCAR-3 ovarian
SNB-19 CNS = test system: SNB-19 CNS
SK-OV-3 ovarian = test system: SK-OV-3 ovarian
U251 CNS = test system: U251 CNS
HS 578T breast = test system: HS 578T breast
A549 NSCLC = test system: A549 NSCLC
NCI/ADR-RES ovarian = test system: NCI/ADR-RES ovarian
HOP-62 NSCLC = test system: HOP-62 NSCLC
DU-145 prostate = test system: DU-145 prostate
RPMI-8226 leukemia = test system: RPMI-8226 leukemia
OVCAR-5 ovarian = test system: OVCAR-5 ovarian
ACHN renal = test system: ACHN renal
786-0 renal = test system: 786-0 renal
NCI-H226 lung = test system: NCI-H226 lung
OVCAR-8 ovarian = test system: OVCAR-8 ovarian
SF-539 CNS = test system: SF-539 CNS
MALME-3M melanoma = test system: MALME-3M melanoma
KM12 colon = test system: KM12 colon
COLO 205 colon = test system: COLO 205 colon
PC-3 prostate = test system: PC-3 prostate
RXF 393 renal = test system: RXF 393 renal
UO-31 renal = test system: UO-31 renal
T-47D breast = test system: T-47D breast
MDA-MB-231 breast = test system: MDA-MB-231 breast
SK-MEL-2 melanoma = test system: SK-MEL-2 melanoma
MCF7 breast = test system: MCF7 breast

Oc1c(I)cc(I)cc1CNCCN(Cc1ccccn1)Cc1ccccn1
GI50 (LOX IMVI melanoma): 1140 nM
TGI (LOX IMVI melanoma): 2450 nM
GI50 (SF-268 CNS): 1010 nM
TGI (SF-268 CNS): 2400 nM
GI50 (IGROV1 ovarian): 830 nM
TGI (IGROV1 ovarian): 2980 nM
GI50 (UACC-257 melanoma): 1890 nM
TGI (UACC-257 melanoma): 4.25 µM
GI50 (A498 renal): 1670 nM
TGI (A498 renal): 3.04 µM
GI50 (NCI-H460 lung): 804 nM
TGI (NCI-H460 lung): 2480 nM
GI50 (HT29 colon): 2300 nM
TGI (HT29 colon): 5.96 µM
GI50 (SNB-75 CNS): 544 nM
TGI (SNB-75 CNS): 2060 nM
GI50 (SK-MEL-5 melanoma): 1150 nM
TGI (SK-MEL-5 melanoma): 2450 nM
GI50 (HCT-116 colon): 1280 nM
TGI (HCT-116 colon): 2610 nM
GI50 (BT-549 breast): 1240 nM
TGI (BT-549 breast): 2520 nM
GI50 (EKVX NSCLC): 911 nM
TGI (EKVX NSCLC): 2110 nM
GI50 (SN12C renal): 667 nM
TGI (SN12C renal): 2370 nM
GI50 (SF-295 CNS): 1230 nM
TGI (SF-295 CNS): 2630 nM
GI50 (NCI-H522 lung): 1370 nM
TGI (NCI-H522 lung): 3.34 µM
GI50 (M14 melanoma): 1450 nM
TGI (M14 melanoma): 3 µM
GI50 (HCT-15 colon): 1180 nM
TGI (HCT-15 colon): 4.17 µM
GI50 (SK-MEL-28 melanoma): 1410 nM
TGI (SK-MEL-28 melanoma): 3.64 µM
GI50 (HCC-2998 colon): 1470 nM
TGI (HCC-2998 colon): 2950 nM
GI50 (TK-10 renal): 1260 nM
TGI (TK-10 renal): 2540 nM
GI50 (OVCAR-4 ovarian): 896 nM
TGI (OVCAR-4 ovarian): 2230 nM
GI50 (CAKI-1 renal): 1320 nM
TGI (CAKI-1 renal): 2680 nM
GI50 (NCI-H23 lung): 1760 nM
TGI (NCI-H23 lung): 4.66 µM
GI50 (MDA-MB-435): 1550 nM
TGI (MDA-MB-435): 3.15 µM
GI50 (HOP-92 NSCLC): 1540 nM
TGI (HOP-92 NSCLC): 3.07 µM
GI50 (SW-620 colon): 1650 nM
TGI (SW-620 colon): 3.47 µM
GI50 (UACC-62 melanoma): 1490 nM
TGI (UACC-62 melanoma): 4.21 µM
GI50 (CCRF-CEM leukemia): 1870 nM
TGI (CCRF-CEM leukemia): 21.1 µM
GI50 (OVCAR-3 ovarian): 1320 nM
TGI (OVCAR-3 ovarian): 2730 nM
GI50 (SNB-19 CNS): 693 nM
TGI (SNB-19 CNS): 2110 nM
GI50 (SK-OV-3 ovarian): 1210 nM
TGI (SK-OV-3 ovarian): 2580 nM
GI50 (U251 CNS): 827 nM
TGI (U251 CNS): 2890 nM
GI50 (HS 578T breast): 2120 nM
TGI (HS 578T breast): 7.43 µM
GI50 (A549 NSCLC): 1240 nM
TGI (A549 NSCLC): 2910 nM
GI50 (NCI/ADR-RES ovarian): 1800 nM
TGI (NCI/ADR-RES ovarian): 4.79 µM
GI50 (HOP-62 NSCLC): 859 nM
TGI (HOP-62 NSCLC): 2670 nM
GI50 (DU-145 prostate): 1070 nM
TGI (DU-145 prostate): 2270 nM
GI50 (RPMI-8226 leukemia): 1660 nM
TGI (RPMI-8226 leukemia): 7.64 µM
GI50 (OVCAR-5 ovarian): 1420 nM
TGI (OVCAR-5 ovarian): 4.18 µM
GI50 (ACHN renal): 1130 nM
TGI (ACHN renal): 2340 nM
GI50 (786-0 renal): 1440 nM
TGI (786-0 renal): 2750 nM
GI50 (NCI-H226 lung): 1070 nM
TGI (NCI-H226 lung): 2750 nM
GI50 (OVCAR-8 ovarian): 2140 nM
TGI (OVCAR-8 ovarian): 8.16 µM
GI50 (SF-539 CNS): 1140 nM
TGI (SF-539 CNS): 2420 nM
GI50 (MALME-3M melanoma): 1530 nM
TGI (MALME-3M melanoma): 3.33 µM
GI50 (KM12 colon): 1200 nM
TGI (KM12 colon): 2670 nM
GI50 (COLO 205 colon): 1490 nM
TGI (COLO 205 colon): 3.68 µM
GI50 (PC-3 prostate): 1160 nM
TGI (PC-3 prostate): 2920 nM
GI50 (RXF 393 renal): 1500 nM
TGI (RXF 393 renal): 2990 nM
GI50 (UO-31 renal): 779 nM
TGI (UO-31 renal): 2070 nM
GI50 (T-47D breast): 1460 nM
TGI (T-47D breast): 2830 nM
GI50 (MDA-MB-231 breast): 1150 nM
TGI (MDA-MB-231 breast): 3.16 µM
GI50 (SK-MEL-2 melanoma): 1740 nM
TGI (SK-MEL-2 melanoma): 3.8 µM
GI50 (MCF7 breast): 1210 nM
TGI (MCF7 breast): 3.19 µM
